Experimental findings from patent US8389513B2, “2-amino-5,5-difluoro-5,6-dihydro-4H-[1,3]oxazin-4-yl)-phenyl]-amides” (Hoffmann-La Roche Inc., priority 2009, dated 2013) are described below.

The IC50 is the midpoint of a concentration-inhibition curve.

In assay [1] the target is T1, cathepsin D (from human liver) (Homo sapiens, UniProt P07339).
T1 construct: cathepsin D (from human liver, Calbiochem); purchased Calbiochem; host or cells: human liver
As to the kind of experiment: Cathepsin D fluorescent substrate kinetic assay. In kind it is biochemical. The settings on record: pH 5.5. The source says: Cathepsin D and Cathepsin E Fluorescent Substrate Kinetic Assays
The MR121 fluorescence assays described below are based on the fact that MR121 forms a non-fluorescent ground state complex with tryptophan. In solution this formation occurs at millimolar concentrations of tryptophan. The mechanism can be used to design a generic biochemical assay for proteases. A substrate peptide is labeled at the N-terminus with tryptophan and at the C-terminus with the fluorophore MR121 (for cathepsin D the 10 amino acid peptide […]-MR121 was used; for cathepsin E, MR121-[…] was used). In absence of protease activity, the substrates remain intact and the MR121 fluorescence is reduced by the high local Trp-concentration. If the substrates are cleaved by the enzymes the MR121 fluorescence is recovered.
The fluorescent substrate cathepsin D and cathepsin E kinetic assays were performed at room temperature in 384-well microtiter plates (black with clear flat bottom, non binding surface plates from Corning) in a final volume of 51 μl. The test compounds were serially diluted in DMSO (15 concentrations, 1/3 dilution steps) and 1 μl of diluted compounds were mixed for 10 min with 40 μl of cathepsin D (from human liver, Calbiochem) diluted in assay buffer (100 mM sodium acetate, 0.05% BSA, pH 5.5; final concentration: 200 nM) or with 40 μl of recombinant human cathepsin E (R&D Systems) diluted in assay buffer (100 mM sodium acetate, 0.05% BSA, pH 4.5; final concentration: 0.01 nM). After addition of 10 μl of the cathepsin D substrate […]-MR121 diluted in cathepsin D assay buffer (final concentration: 300 nM) or 10 µl of the cathepsin E substrate MR121-[…] diluted in cathepsin E assay buffer (final concentration: 300 nM), the plates were strongly shaken for 2 minutes. The enzymatic reaction was followed in a plate: vision reader (Perkin Elmer) (excitation wavelength: 630 nm; emission: 695 nm) for at least 30 minutes in a kinetic measurement detecting an increase of MR121 fluorescence during the reaction time. The slope in the linear range of the kinetic was calculated and the IC50 of the test compounds were determined using a four parameter equation for curve fitting.

Another assay addresses T2, CYP3A4 (Homo sapiens, UniProt P08684).
T2 construct: 0.2 mg/ml pooled human liver microsomes; from tissue; host or cells: pooled human liver microsomes
The experiment in a line: CYP inhibition assay, CYP3A4. The class given is in vitro ADME. The settings on record: human liver microsomes, midazolam; read-out: CYP IC50 3A4. The procedure:
(§1) Inhibition of cytochromes P450 (CYPs) 2C9, 2D6 and 3A4 was assessed using human liver microsomes and CYP-selective substrate metabolism reactions. 50 μl incubations were made up containing (finally) 0.2 mg/ml pooled human liver microsomes, 5 μM substrate (diclofenac for CYP2C9 [4′ hydroxylase], dextromethorphan for CYP2D6 [O-demethylase] or midazolam for CYP3A4 [1′ hydroxylase]), 0.25 μL DMSO containing test inhibitor and NADPH regenerating system. […] Incubations were prewarmed to 37° C. for 10 minutes before initiation by addition of NADPH regenerating system. Incubations were quenched after 5 minutes (20 minutes for dextromethorphan) by addition of 50 μl cold acetonitrile containing 20 ng/ml 4-OH-diclofenac-13C6, 20 ng/mL dextrorphan-D3 and 20 ng/mL 1-OH-midazolam-D4. Quenched incubates were stored at −20° C. for at least 1 hour before centrifugation (20,000×g, 20 minutes). Supernatants were removed and diluted 1:1 with water prior to analysis using a RapidFire sample injector system and API4000 mass spectrometer. Peak areas for substrate, metabolite and stable-labelled metabolite standard were determined using MS/MS. The peak area ratios between the metabolite generated by the enzymatic reaction and the internal standard were used in subsequent calculations. The percentage of (DMSO) control activity was calculated for each incubate and IC50 values estimated by non-linear regression. Sulfaphenazole, quinidine or ketoconazole were tested in each CYP2C9, CYP2D6 or CYP3A4 inhibition experiment, respectively, to ensure assay sensitivity and reproducibility.

A further assay has as its target T3, CYP2C9 (Homo sapiens, UniProt P11712).
T3 construct: 0.2 mg/ml pooled human liver microsomes; from tissue; host or cells: pooled human liver microsomes
The experiment in a line: CYP inhibition assay, CYP2C9. In kind it is in vitro ADME. The settings on record: human liver microsomes, diclofenac; read-out: CYP IC50 2C9. The procedure: as §1

The next assay has as its target T4, CYP2D6 (Homo sapiens, UniProt P10635).
T4 construct: 0.2 mg/ml pooled human liver microsomes; from tissue; host or cells: pooled human liver microsomes
As to the kind of experiment: CYP inhibition assay, CYP2D6. In kind it is in vitro ADME. Conditions: human liver microsomes, dextromethorphan; read-out: CYP IC50 2D6. How it is done:
as §1
A general note: Microsomes from liver hold many membrane-bound enzymes, among them those of drug oxidation.

Structures are written as SMILES.

T4 sequence (P10635 whole entry): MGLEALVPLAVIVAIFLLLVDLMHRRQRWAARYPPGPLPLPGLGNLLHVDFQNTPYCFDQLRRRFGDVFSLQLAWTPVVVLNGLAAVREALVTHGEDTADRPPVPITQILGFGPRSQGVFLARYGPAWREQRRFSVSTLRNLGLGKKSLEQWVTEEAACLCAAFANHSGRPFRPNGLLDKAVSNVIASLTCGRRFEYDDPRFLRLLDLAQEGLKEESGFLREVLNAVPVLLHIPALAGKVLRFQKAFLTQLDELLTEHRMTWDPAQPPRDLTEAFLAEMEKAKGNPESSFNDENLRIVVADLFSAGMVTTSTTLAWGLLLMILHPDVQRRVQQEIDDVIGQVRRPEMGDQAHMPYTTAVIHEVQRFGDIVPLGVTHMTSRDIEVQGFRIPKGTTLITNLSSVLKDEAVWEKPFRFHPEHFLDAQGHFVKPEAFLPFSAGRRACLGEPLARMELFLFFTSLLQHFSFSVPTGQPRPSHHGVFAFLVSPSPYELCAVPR
T2 sequence (P08684 whole entry): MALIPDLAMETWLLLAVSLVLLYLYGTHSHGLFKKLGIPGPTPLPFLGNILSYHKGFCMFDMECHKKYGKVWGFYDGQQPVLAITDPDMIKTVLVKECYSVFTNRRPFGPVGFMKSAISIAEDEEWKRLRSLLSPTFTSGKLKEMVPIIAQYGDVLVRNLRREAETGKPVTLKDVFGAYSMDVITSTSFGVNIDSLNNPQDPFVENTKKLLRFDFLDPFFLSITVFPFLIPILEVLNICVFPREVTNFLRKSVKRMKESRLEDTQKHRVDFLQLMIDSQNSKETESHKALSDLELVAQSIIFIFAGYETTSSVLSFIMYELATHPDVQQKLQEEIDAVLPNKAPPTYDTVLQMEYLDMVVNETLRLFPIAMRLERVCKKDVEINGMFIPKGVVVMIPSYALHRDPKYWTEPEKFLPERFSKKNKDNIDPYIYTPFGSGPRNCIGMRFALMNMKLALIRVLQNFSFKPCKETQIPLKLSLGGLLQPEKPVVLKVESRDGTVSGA
T1 sequence (P07339 65-412): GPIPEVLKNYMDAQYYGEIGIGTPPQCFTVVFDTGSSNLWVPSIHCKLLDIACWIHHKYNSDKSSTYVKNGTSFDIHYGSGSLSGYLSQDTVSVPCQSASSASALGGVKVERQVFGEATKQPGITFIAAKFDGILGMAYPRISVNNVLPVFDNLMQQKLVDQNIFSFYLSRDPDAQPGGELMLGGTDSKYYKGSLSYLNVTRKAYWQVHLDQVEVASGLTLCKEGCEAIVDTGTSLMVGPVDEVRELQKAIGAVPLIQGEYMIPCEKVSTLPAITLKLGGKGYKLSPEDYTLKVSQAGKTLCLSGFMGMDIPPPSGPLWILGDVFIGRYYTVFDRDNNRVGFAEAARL
T3 sequence (P11712 whole entry): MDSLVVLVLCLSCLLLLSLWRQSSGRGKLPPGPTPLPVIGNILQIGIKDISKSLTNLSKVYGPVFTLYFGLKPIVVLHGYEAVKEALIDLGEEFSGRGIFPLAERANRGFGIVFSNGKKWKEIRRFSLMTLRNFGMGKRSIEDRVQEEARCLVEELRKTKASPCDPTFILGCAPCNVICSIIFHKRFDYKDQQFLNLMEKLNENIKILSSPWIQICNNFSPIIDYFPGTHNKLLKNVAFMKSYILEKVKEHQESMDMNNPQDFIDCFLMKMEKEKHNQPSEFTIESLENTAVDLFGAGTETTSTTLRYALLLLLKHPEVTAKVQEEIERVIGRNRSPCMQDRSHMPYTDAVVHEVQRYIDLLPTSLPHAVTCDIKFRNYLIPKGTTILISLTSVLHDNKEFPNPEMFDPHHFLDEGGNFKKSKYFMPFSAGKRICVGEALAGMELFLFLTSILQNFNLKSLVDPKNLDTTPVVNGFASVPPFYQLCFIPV

Take `C[C@]1(c2cc(NC(=O)c3ccc(Cl)cn3)ccc2F)N=C(N)OCC1(F)F` [Example 1, 5-Chloro-pyridine-2-carboxylic acid [3-((R)-2-amino-5,5-difluoro-4-methyl-5,6-dihydro-4H-[1,3]oxazin-4-yl)-4-fluoro-phenyl]-amide]: the IC50 is > 200 µM in assay [1], > 10 µM at CYP3A4, > 10 µM on CYP2C9 and 1 to 10 µM at CYP2D6.

In the case of `C[C@]1(c2cc(NC(=O)c3ncc(Cl)cc3Cl)ccc2F)N=C(N)OCC1(F)F` [Example 8, 3,5-Dichloro-pyridine-2-carboxylic acid [3-((R)-2-amino-5,5-difluoro-4-methyl-5,6-dihydro-4H-[1,3]oxazin-4-yl)-4-fluoro-phenyl]-amide], the half-maximal inhibitory concentration (IC50) is > 170 µM in assay [1], > 10 µM at CYP3A4, > 10 µM at CYP2C9 and > 10 µM on CYP2D6.

Regarding `CC1(C)OC(N)=N[C@](C)(c2cc(NC(=O)c3ncc(C(F)(F)F)cc3Cl)ccc2F)C1(F)F` [Example 20, 3-Chloro-5-trifluoromethyl-pyridine-2-carboxylic acid [3-((R)-2-amino-5,5-difluoro-4,6,6-trimethyl-5,6-dihydro-4H-[1,3]oxazin-4-yl)-4-fluoro-phenyl]-amide], the 50% inhibitory concentration (IC50) in assay [1] was > 200 µM; at CYP3A4 it was > 10 µM; on CYP2C9 it was 1 to 10 µM; at CYP2D6, 1 to 10 µM.

Take `C[C@]1(c2cc(NC(=O)c3ncc(C(F)(F)F)cc3Cl)ccc2F)N=C(N)OCC1(F)F` [Example 5, 3-Chloro-5-trifluoromethyl-pyridine-2-carboxylic acid [3-((R)-2-amino-5,5-difluoro-4-methyl-5,6-dihydro-4H-[1,3]oxazin-4-yl)-4-fluoro-phenyl]-amide]: the IC50 is > 200 µM in assay [1], > 10 µM at CYP3A4 and 1 to 10 µM at CYP2D6.

For the compound `CC1(C)OC(N)=N[C@](C)(c2cc(NC(=O)c3ncc(C#N)cc3Cl)ccc2F)C1(F)F` [Example 22, 3-Chloro-5-cyano-pyridine-2-carboxylic acid [3-((R)-2-amino-5,5-difluoro-4,6,6-trimethyl-5,6-dihydro-4H-[1,3]oxazin-4-yl)-4-fluoro-phenyl]-amide], the IC50 in assay [1] is > 200 µM; at CYP3A4 it was 1 to 10 µM; at CYP2C9, > 10 µM; on CYP2D6 it was 1 to 10 µM.

With `CC1(C)OC(N)=N[C@](C)(c2cc(NC(=O)c3ccc(C#N)cn3)ccc2F)C1(F)F` [Example 21, 5-Cyano-pyridine-2-carboxylic acid [3-((R)-2-amino-5,5-difluoro-4,6,6-trimethyl-5,6-dihydro-4H-[1,3]oxazin-4-yl)-4-fluoro-phenyl]-amide], the IC50 is > 200 µM in assay [1], > 10 µM at CYP3A4, > 10 µM at CYP2C9 and > 10 µM on CYP2D6.

On to `C[C@]1(c2cc(NC(=O)c3ncc(C#N)cc3Cl)ccc2F)N=C(N)OCC1(F)F` [Example 39, 3-Chloro-5-cyano-pyridine-2-carboxylic acid [3-((R)-2-amino-5,5-difluoro-4-methyl-5,6-dihydro-4H-[1,3]oxazin-4-yl)-4-fluoro-phenyl]-amide], for which the IC50 in assay [1] is > 200 µM; on CYP3A4 it was 1 to 10 µM; at CYP2C9, > 10 µM; at CYP2D6, > 10 µM.
